Measurements as given in BindingDB's records for doi:10.1016/j.bmcl.2019.05.029 (Novira Therapeutics, 2019).
pEC50: −log10 of the molar value.

Assay: Binding affinity to capsid protein in Hepatitis B virus infected in human HepG2.2.15 cells assessed as inhibition of HBV DNA replication incubated for 3 days followed by replacement of fresh medium containing compound and measured after 3 days by chemiluminescent assay

SMILES | pEC50
O=C(Nc1ccc(F)c(Cl)c1)c1ccc(F)c(S(=O)(=O)N2CCCCC(O)C2)c1 (centres undefined) | 6.77
CC1(O)CCCN(S(=O)(=O)c2cc(C(=O)Nc3ccc(F)c(Cl)c3)ccc2F)CC1 (centres undefined) | 6.96
O=C(Nc1ccc(F)c(Cl)c1)c1ccc(F)c(S(=O)(=O)N2CCCC(O)CC2)c1 (centres undefined) | 6.85
CC1(O)CCCCN(S(=O)(=O)c2cc(C(=O)Nc3ccc(F)c(Cl)c3)ccc2F)C1 (centres undefined) | 6.92
O=C(Nc1ccc(F)c(Cl)c1)c1ccc(F)c(S(=O)(=O)N2CCCCCCC2O)c1 (centres undefined) | 6.92
CC1(O)COCCN(S(=O)(=O)c2cc(C(=O)Nc3ccc(F)c(Cl)c3)ccc2F)C1 (centres undefined) | 7.00
O=C(Nc1ccc(F)c(Cl)c1)c1ccc(F)c(S(=O)(=O)N2CCOCC(F)C2)c1 (centres undefined) | 7.10
COC1COCCN(S(=O)(=O)c2cc(C(=O)Nc3ccc(F)c(Cl)c3)ccc2F)C1 (centres undefined) | 6.89
CC(O)C1CCCCN(S(=O)(=O)c2cc(C(=O)Nc3ccc(F)c(Cl)c3)ccc2F)C1 (centres undefined) | 6.85
O=C(Nc1ccc(F)c(Cl)c1)c1ccc(F)c(S(=O)(=O)N2CCCCC(F)(F)C2)c1 | 6.85
O=C(Nc1ccc(F)c(Cl)c1)c1ccc(F)c(S(=O)(=O)N2CCOC[C@@H](O)C2)c1 | 6.85
O=C(Nc1ccc(F)c(Cl)c1)c1ccc(F)c(S(=O)(=O)N2CCOC[C@H](O)C2)c1 | 7.20
CN1CCCN(S(=O)(=O)c2cc(C(=O)Nc3ccc(F)c(Cl)c3)ccc2F)CC1=O | 6.66
O=C(Nc1ccc(F)c(Cl)c1)c1ccc(F)c(S(=O)(=O)N2CCCCCC(O)C2)c1 (centres undefined) | 7.22
O=C(Nc1ccc(F)c(Cl)c1)c1ccc(F)c(S(=O)(=O)N2CCOCC(O)C2)c1 (centres undefined) | 7.00
CN1CCN(S(=O)(=O)c2cc(C(=O)Nc3ccc(F)c(Cl)c3)ccc2F)CC(O)C1 (centres undefined) | 6.33
O=C(Nc1ccc(F)c(Cl)c1)c1ccc(F)c(S(=O)(=O)N2CCCCC(CO)C2)c1 (centres undefined) | 6.85
O=C(Nc1ccc(F)c(Cl)c1)c1ccc(F)c(S(=O)(=O)N2CCSCC(O)C2)c1 (centres undefined) | 6.77
O=C(Nc1ccc(F)c(Cl)c1)c1ccc(F)c(S(=O)(=O)N2CCCCC(O)CC2)c1 (centres undefined) | 7.28
